From publication PMC7314595 (Angewandte Chemie (International ed. in English), 2016)
Entries after “also recorded” stand apart in the source; their conditions may differ.

Columns and labels:
CLND solubility = type: physicochemical
BRD2 BD1 = BRD2 BD1 (Homo sapiens, UniProt P25440); test: BRD2 BD1 TR-FRET; type: binding
[1] = system: genes involved in cell cycle and division; test: Expression of genes involved in cell cycle and division; type: cell-based
Chrom logD = type: physicochemical; conditions: pH 7.4
[2] = target: T1, full-length ATAD2 / histone H3.3 (Homo sapiens, UniProt Q6PL18); test: Cellular NanoBRET displacement, full-length ATAD2 from histone H3.3; type: cell-based
T1 sequence (Q6PL18 1-1390): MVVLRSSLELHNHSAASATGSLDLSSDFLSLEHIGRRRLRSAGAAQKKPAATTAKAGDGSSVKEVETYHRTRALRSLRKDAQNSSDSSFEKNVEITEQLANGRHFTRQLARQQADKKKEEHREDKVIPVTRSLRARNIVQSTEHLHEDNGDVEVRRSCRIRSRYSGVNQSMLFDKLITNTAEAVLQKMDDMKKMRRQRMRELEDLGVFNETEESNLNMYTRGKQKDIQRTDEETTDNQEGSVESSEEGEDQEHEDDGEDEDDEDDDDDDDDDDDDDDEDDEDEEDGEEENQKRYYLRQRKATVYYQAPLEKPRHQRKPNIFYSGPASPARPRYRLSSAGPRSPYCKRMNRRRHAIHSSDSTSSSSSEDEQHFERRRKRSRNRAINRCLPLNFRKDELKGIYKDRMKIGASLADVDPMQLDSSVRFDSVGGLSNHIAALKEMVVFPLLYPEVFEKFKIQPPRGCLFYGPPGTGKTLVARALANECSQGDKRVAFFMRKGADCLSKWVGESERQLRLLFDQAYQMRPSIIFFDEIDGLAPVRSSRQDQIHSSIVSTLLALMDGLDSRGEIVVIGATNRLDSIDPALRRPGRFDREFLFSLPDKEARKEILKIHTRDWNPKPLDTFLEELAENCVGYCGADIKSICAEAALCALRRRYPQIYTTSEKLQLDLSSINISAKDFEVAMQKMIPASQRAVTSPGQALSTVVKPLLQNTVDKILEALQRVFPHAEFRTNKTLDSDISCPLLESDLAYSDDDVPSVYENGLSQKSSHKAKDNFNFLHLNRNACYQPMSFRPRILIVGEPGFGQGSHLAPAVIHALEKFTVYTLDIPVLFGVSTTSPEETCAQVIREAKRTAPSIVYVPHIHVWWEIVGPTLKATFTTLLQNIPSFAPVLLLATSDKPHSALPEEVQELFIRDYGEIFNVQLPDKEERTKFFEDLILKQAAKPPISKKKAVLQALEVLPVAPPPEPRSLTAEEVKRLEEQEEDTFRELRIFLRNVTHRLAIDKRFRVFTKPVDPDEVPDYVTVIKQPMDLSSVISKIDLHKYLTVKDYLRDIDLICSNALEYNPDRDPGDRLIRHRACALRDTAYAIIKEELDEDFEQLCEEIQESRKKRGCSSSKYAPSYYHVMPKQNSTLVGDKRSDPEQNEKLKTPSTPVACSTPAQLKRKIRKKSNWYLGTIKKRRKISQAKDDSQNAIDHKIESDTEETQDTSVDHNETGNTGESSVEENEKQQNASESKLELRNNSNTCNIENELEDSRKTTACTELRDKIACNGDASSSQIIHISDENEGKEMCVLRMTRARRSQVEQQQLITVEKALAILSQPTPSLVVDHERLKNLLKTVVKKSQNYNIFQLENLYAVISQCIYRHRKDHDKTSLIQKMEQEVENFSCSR

colony formation = test: Colony formation; type: cell-based
[3] = system: internal GSK panel of 40 targets considered as potential liabilities; test: Internal GSK panel of 40 liability targets; conditions: data not shown
ATAD2B bromodomain = target: T2, ATAD2B bromodomain (Homo sapiens, UniProt Q9ULI0); test: ATAD2B TR-FRET; type: binding
T2 sequence (Q9ULI0 951-1066 limits assumed): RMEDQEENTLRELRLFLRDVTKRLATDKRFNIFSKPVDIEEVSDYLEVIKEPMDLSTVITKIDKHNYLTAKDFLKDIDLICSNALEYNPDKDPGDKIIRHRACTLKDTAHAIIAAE

tandem BRD4 bromodomains = tandem BRD4 bromodomains (Homo sapiens, UniProt O60885); test: BRD4 tandem isothermal titration calorimetry; type: binding
[4] = target: T3, ATAD2 bromodomain / histone H3.3 (Homo sapiens, UniProt Q6PL18); test: Cellular NanoBRET displacement, ATAD2 bromodomain from histone H3.3; type: cell-based; conditions: NanoBRET (Promega)
T3 sequence (Q6PL18 980-1092 limits assumed): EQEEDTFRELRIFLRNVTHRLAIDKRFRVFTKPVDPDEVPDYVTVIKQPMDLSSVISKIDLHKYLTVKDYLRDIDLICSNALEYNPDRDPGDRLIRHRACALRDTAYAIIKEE

Sequence of BRD2 BD1 (P25440 74-180 limits assumed): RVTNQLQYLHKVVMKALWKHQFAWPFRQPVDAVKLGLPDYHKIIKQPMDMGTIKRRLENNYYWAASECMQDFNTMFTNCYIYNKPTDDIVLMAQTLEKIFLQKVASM

solubility (CLND solubility): > 439 µM
IC50 (BRD2 BD1): ≥ 39800 nM
chromatographic logD (Chrom logD): 3.2
Off-target activity against internal GSK panel of 40 targets [3]: inactive
IC50 (ATAD2B bromodomain): 20 nM
Interaction with tandem BRD4 bromodomains by ITC (tandem BRD4 bromodomains): no interaction detected
Compound: CO[C@H]1CNC[C@@H](OCC2CCC(F)(F)CC2)[C@@H]1Nc1ncc(-c2cncc(C)c2)c2cc(C)c(=O)[nH]c12 [Compound 16]
Inhibition of genes involved in cell cycle and division [1]: only seen at high compound concentrations
Displacement of full-length ATAD2 from histone H3.3 [2]: ineffective; also recorded: does not displace full-length ATAD2
Effects on colony formation (colony formation): only seen at high compound concentrations
Displacement of labelled ATAD2 bromodomain from histone H3.3 [4]: dose-dependent displacement; also recorded: displaces the ATAD2 bromodomain construct
